In ChEMBL document CHEMBL1201862, “PubChem BioAssay data set” (2004):
The source made the active and inactive calls.

Tests used:
cells [1] = assay type: functional, cell-based
[2] = molecular target: T1, Trace amine-associated receptor 1 (Homo sapiens, UniProt Q96RJ0); experiment: Counterscreen for agonists of the human trace amine associated receptor 1 (hTAAR1): Fluorescence-based cell-based high throughput dose response assay to identify hTAAR1 agonist that also desensitize TAAR1 receptor response.; assay type: functional
T1 sequence (Q96RJ0 whole entry): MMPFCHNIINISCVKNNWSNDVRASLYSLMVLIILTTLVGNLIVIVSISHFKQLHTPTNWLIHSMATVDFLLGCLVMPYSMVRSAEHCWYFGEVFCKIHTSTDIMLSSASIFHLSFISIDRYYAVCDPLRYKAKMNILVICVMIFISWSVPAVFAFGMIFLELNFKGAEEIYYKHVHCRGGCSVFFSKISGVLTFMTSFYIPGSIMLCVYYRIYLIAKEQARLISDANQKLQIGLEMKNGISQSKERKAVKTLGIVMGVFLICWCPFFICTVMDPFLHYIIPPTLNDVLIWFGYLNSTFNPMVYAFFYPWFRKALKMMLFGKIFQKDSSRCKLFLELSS

[3] = molecular target: T1, Trace amine-associated receptor 1; experiment: Fluorescence-based cell-based high throughput dose response assay to identify agonists of the human trace amine associated receptor 1 (TAAR1).; assay type: functional
cells [4] = assay type: functional, cell-based; remark: listed apart in the source
[5] = CEM21 lymphoblast cell cytotoxicity, dose response, cytotoxicity control for viral fusion inhibitor project, CellTiter-Glo luminescence, cherry-picked (AID 652042); assay type: functional, cell-based;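 also: potency for signal decrease meaning cytotoxicity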
[6] = off-target signal loss in HeLa-CEM21 co-culture – HeLa F-luc CTL cells, cherry-picked, counter-screen for HIV-1 Env fusion inhibitor project, dose response (AID 652040); assay type: functional, cell-based;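 also: potency for signal decrease marking cytotoxic or nonspecific inhibition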
[7] = inhibitors of HIV Env-driven cell fusion, dose response, cherry-pick (AID 652057); assay type: functional, cell-based
[8] = ZM109 Env clade C HIV-1 fusion inhibitors, dose response, HeLa effector, CEM target cells, luciferase, cherry-pick (AID 652058); assay type: functional, cell-based
[9] = inhibitors of clade B AD8 Env fusion, dose response, cell-based, cherry-pick (AID 652062); assay type: functional;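 also: luciferase signal from cell-cell fusion driven by HIV-1 clade B AD8 Env; potency is for inhibitors of fusion seen as a drop in luminescence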
[10] = molecular target: T2, Long-chain-fatty-acid--AMP ligase FadD28 (Mycobacterium tuberculosis, UniProt P9WQ59); experiment: Fluorescence polarization aasay to screen for inhibitors that compete for the binding of FadD28 to a bisubstrate Measured in Biochemical System Using Plate Reader - 2147-01_Inhibitor_Dose_CherryPick_Activity.; assay type: functional, Mycobacterium tuberculosis H37Rv
T2 sequence (P9WQ59 whole entry): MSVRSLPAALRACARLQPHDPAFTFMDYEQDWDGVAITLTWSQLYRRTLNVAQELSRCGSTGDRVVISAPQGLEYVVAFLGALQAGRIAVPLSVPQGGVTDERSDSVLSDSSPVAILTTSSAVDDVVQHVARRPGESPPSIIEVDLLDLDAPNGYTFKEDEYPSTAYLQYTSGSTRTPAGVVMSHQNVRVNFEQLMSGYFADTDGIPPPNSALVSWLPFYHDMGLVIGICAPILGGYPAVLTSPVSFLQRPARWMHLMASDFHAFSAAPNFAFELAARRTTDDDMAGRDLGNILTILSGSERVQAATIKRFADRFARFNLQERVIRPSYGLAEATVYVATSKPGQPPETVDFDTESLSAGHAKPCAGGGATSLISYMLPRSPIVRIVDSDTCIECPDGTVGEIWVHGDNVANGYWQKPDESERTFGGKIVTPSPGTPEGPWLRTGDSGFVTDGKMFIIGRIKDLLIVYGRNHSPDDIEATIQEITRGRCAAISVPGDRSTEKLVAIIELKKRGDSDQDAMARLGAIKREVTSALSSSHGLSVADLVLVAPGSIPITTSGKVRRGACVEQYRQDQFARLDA

[11] = MC4R antagonists, dose response, counter-screen for LGR2 antagonist project, cell-based, plate reader, cherry pick (AID 743444); assay type: functional;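 also: transfected HEK 293 cells stimulated with alpha-MSH peptide; potency of inhibitors of the alpha-MSH evoked signal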
[12] = A549 cell cytotoxicity, dose response, cytotoxicity control, plate reader, cherry-pick, antagonist series (AID 743412); assay type: functional, cell-based
[13] = HEK293 cell cytotoxicity, dose response, cytotoxicity control, plate reader, cherry-picked samples (AID 743446); assay type: functional, cell-based
[14] = LGR2 antagonists, dose response, cell-based, HEK293, CRE-luciferase reporter, cherry pick, set 2 (AID 743343); assay type: functional;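 also: transfected cells were stimulated with diluted bursicon conditioned medium after compound addition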
[15] = HepG2 cell cytotoxicity, dose response, cytotoxicity control, plate reader, cherry-pick, antagonist series (AID 743416); assay type: functional, cell-based
[16] = intracellular Trypanosoma cruzi inhibitors in host cells – cell-based, plate reader, cherry-pick samples, set 3, dose response (AID 651818); assay type: functional;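 also: compounds incubated with infected cells for about four days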
Paired box protein Pax-8 = Paired box protein Pax-8 (Homo sapiens, UniProt Q06710); experiment: inhibitors of PAX8-driven TPO luciferase reporter, dose response, RMG-I cells, cherry-pick (AID 687027); assay type: functional, cell-based;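 also: luciferase reporter driven by Pax8 target thyroperoxidase promoter measured by SteadyGlo luminescence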
Chain of Paired box protein Pax-8 (Q06710 whole entry): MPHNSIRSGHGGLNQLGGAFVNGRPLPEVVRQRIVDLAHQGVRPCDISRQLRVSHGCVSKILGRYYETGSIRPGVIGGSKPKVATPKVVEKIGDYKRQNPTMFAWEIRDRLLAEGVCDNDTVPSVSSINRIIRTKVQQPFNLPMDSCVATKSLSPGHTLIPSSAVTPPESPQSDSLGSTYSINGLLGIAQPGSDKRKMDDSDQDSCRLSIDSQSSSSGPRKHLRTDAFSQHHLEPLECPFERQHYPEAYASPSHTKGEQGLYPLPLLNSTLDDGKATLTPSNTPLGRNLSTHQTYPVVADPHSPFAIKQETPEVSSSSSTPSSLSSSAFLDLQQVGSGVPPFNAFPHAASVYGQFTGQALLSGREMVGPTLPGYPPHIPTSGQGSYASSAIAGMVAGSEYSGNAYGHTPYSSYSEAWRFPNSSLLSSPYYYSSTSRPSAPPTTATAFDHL

[17] = cytotoxicity in OVCAR8 ovarian cancer cells, dose response, PAX8 project, cell-based, plate reader, dry powder samples (AID 743197); assay type: functional; conditions: OVCAR-8
[18] = NIH:OVCAR-3 ovarian cancer cell cytotoxicity, dose response, PAX8 inhibitor project, plate reader, dry powder samples (AID 743044); assay type: functional, cell-based
[19] = IGROV1 ovarian cancer cell cytotoxicity, dose response, PAX8 inhibitor project, plate reader, dry powder samples (AID 743043); assay type: functional, cell-based; conditions: IGROV-1

Compound: Cc1ccc(SCC(=O)Nc2ccc(N3CCN(C)CC3)c(F)c2)c(C)c1
- EC50 (cells [1]): > 29.9 µM (inactive)
- IC50 [2]: 5.55 µM (active)
- EC50 [3]: 3.5 µM (active)
- IC50 (cells [4]): > 29.9 µM (inactive)

Compound: O=S(=O)(NCC(Nc1ccccc1)c1ccccc1)c1ccc(Cl)cc1 (stereo not drawn)
- AC50 [5]: 19 µM (active)
- AC50 [6]: 10.4 µM (active)
- AC50 [7]: 2.48 µM (active)
- AC50 [8]: 2.15 µM (active)
- AC50 [9]: 34.8 µM (active)

Compound: CCOC(=O)C(NCCc1ccccc1F)(NC(C)=O)C(F)(F)F (stereo not drawn)
- EC50 (cells [1]): > 29.9 µM (inactive)
- IC50 [2]: > 29.9 µM (inactive)
- EC50 [3]: 1.84 µM (active)
- IC50 (cells [4]): > 29.9 µM (inactive)

Compound: C[C@H](NC(=O)c1ccccc1)C(=O)OCC(=O)c1c[nH]c2ccccc12
- EC50 (cells [1]): > 29.9 µM (inactive)
- IC50 [2]: 7.13 µM (active)
- EC50 [3]: 3.28 µM (active)
- IC50 (cells [4]): > 29.9 µM (inactive)

Compound: Cc1cc(C)c(CN2CCN(C(=O)Cn3ccc(NC(=O)OCc4ccccc4)nc3=O)CC2)c(C)c1
- AC50 [5]: 26.8 µM (active)
- AC50 [6]: > 70 µM (inactive)
- AC50 [9]: 4.37 µM (active)

Compound: Cc1csc(NC(=O)CSc2nnc(NC(=O)NC(C)(C)C)s2)n1
- AC50 [10]: > 100 µM (inactive)

Compound: CCC1=NN(C(=O)c2ccccc2Br)C(O)(c2ccc(Br)cc2)C1 (stereo not drawn)
- AC50 [10]: > 100 µM (inactive)

Compound: CC(C)c1ccc(N(C(=O)c2csnn2)C(C(=O)NC2CCCC2)c2ccncc2)cc1 (stereo not drawn)
- AC50 [5]: 60.5 µM (active)
- AC50 [6]: 1.59 µM (active)
- AC50 [7]: 0.795 µM (active)
- AC50 [8]: 0.654 µM (active)
- AC50 [9]: 1.76 µM (active)

Compound: O=C(CN1CCN(C(=O)CNC(=O)c2ccc(-c3ccccc3)cc2)CC1)Nc1ccccc1Cl
- AC50 [11]: 48.1 µM (active)
- AC50 [12]: 24.9 µM (active)
- AC50 [13]: 30.1 µM (active)
- AC50 [14]: 43.4 µM (active)
- AC50 [15]: 31.7 µM (active)

Compound: C[C@H](CO)N1C[C@H](C)[C@H](CN(C)Cc2ccc(C(F)(F)F)cc2)Oc2ccc(NC(=O)Nc3ccc(F)cc3)cc2C1=O
- AC50 [11]: 26.4 µM (active)
- AC50 [12]: 23.1 µM (active)
- AC50 [16]: 5.6 µM (active)
- AC50 [14]: 33.1 µM (active)
- AC50 [15]: 28 µM (active)

Compound: COc1ccccc1CCn1cnc(-c2ccc(Br)cc2)c1CC(C)C
- EC50 (cells [1]): > 29.9 µM (inactive)
- IC50 [2]: 7.08 µM (active)
- EC50 [3]: 1.75 µM (active)
- IC50 (cells [4]): 25.7 µM (inactive)

Compound: C[C@@H]1CN([C@@H](C)CO)C(=O)Cc2cc(NS(=O)(=O)c3ccc(F)cc3)ccc2O[C@H]1CN(C)Cc1ccc(C(F)(F)F)cc1
- AC50 (Paired box protein Pax-8): 4.76 µM (active)
- AC50 [17]: 26.9 µM (active)
- AC50 [18]: 19.7 µM (active)
- AC50 [19]: 29.2 µM (active)

Compound: O=C(C[C@H]1C[C@@H]2c3cc(NC(=O)Nc4ccc(C(F)(F)F)cc4)ccc3O[C@@H]2[C@@H](CO)O1)NCc1ccc(Cl)cc1
- AC50 (Paired box protein Pax-8): 7.85 µM (active)
- AC50 [18]: 61.1 µM (active)
- AC50 [19]: 40.9 µM (active)
